According to the CheMixHub viscosity set:

Experiment: xn = mol fraction of the nth substance listed

CS(C)=O + COC(=O)OC
308.15 K, 101 kPa
Conditions	viscosity [mPa·s]
x1 = 0.0596	0.547
x1 = 0.1027	0.57
x1 = 0.1913	0.621
x1 = 0.2791	0.677
x1 = 0.371	0.743
x1 = 0.4598	0.814
x1 = 0.5007	0.853
x1 = 0.5479	0.897
x1 = 0.626	0.983
x1 = 0.7427	1.137
x1 = 0.8572	1.327
x1 = 0.9283	1.47

CCCCC + COC(C)=O
298.15 K, 101 kPa
Conditions	viscosity [mPa·s]
x1 = 0.05	0.342
x1 = 0.1	0.324
x1 = 0.1087	0.322
x1 = 0.15	0.309
x1 = 0.2	0.296
x1 = 0.2088	0.295
x1 = 0.25	0.285
x1 = 0.3	0.275
x1 = 0.3035	0.273
x1 = 0.35	0.266
x1 = 0.4	0.257
x1 = 0.401	0.258
x1 = 0.45	0.25
x1 = 0.5	0.243
x1 = 0.5022	0.243
x1 = 0.55	0.237
x1 = 0.5972	0.232
x1 = 0.6	0.232
x1 = 0.65	0.227
x1 = 0.7	0.223
x1 = 0.7028	0.223
x1 = 0.75	0.22
x1 = 0.8	0.218
x1 = 0.8002	0.219
x1 = 0.85	0.217
x1 = 0.9	0.216
x1 = 0.9009	0.218
x1 = 0.95	0.215

OC1CCCCC1 + COCCO
303.15 K, 101.3 kPa
Conditions	viscosity [mPa·s]
x2 = 0.135	31.36
x2 = 0.232	23.64
x2 = 0.3144	17.36
x2 = 0.4389	9.281
x2 = 0.4908	6.609
x2 = 0.5515	4.075
x2 = 0.9188	0.811

CCOC(=O)C(C)O (configuration not stated) + COCCOCCOCCOCCOC
101 kPa
Conditions	viscosity [mPa·s]
303.15 K, x1 = 0.3998	2.815
308.15 K, x1 = 0.6001	2.385
323.15 K, x1 = 0.8001	1.605

CC(=O)O.NCCO + CS(C)=O
298.15 K, 101.3 kPa
Conditions	viscosity [mPa·s]
x2 = 0.069	1634
x2 = 0.143	1064
x2 = 0.223	420
x2 = 0.311	375.1
x2 = 0.404	139.5
x2 = 0.502	66.42
x2 = 0.612	29.5
x2 = 0.732	12.73
x2 = 0.852	6.71

NS(=O)(=O)O + CS(C)=O
298 K, 101.33 kPa
Conditions	viscosity [mPa·s]
x1 = 0.02135	2.438
x1 = 0.04282	3.041
x1 = 0.06425	3.822
x1 = 0.08365	4.853

OC1CCCCC1 + CS(C)=O
303.15 K, 101 kPa
Conditions	viscosity [mPa·s]
x2 = 0.1009	20.83
x2 = 0.1821	12.4
x2 = 0.2727	7.835
x2 = 0.373	5.386
x2 = 0.4703	4.069
x2 = 0.5678	3.265
x2 = 0.6724	2.732
x2 = 0.791	2.203
x2 = 0.8922	2.015
